Experiment [1] addresses T1, Glucagon-like peptide 1 receptor (Homo sapiens, UniProt P43220). In words: Agonist activity at human GLP-1R expressed in HEK293 cells assessed as stimulation of cAMP accumulation incubated for 20 mins in presence of 0% HSA. It counts as functional, cell-based. (In general: Cyclic AMP is a second messenger, typically raised through Gs and lowered through Gi signalling.)

In experiment [2] the target is T1, Glucagon-like peptide 1 receptor. In words: Agonist activity at human GLP-1R expressed in HEK293 cells assessed as stimulation of cAMP accumulation incubated for 20 mins in presence of 4.4% HSA. It counts as functional, cell-based.
Experiment [3] has the same target. Nature of the experiment: Ratio of EC50 for agonist activity at human GLP-1R expressed in HEK293 cells in presence of 4.4% HSA to EC50 for agonist activity at human GLP-1R expressed in HEK293 cells in presence of 0% HSA. It is filed as cell-based.
Experiment [4] has the same target. Nature of the experiment: Agonist activity at human GLP-1R expressed in HEK293 cells assessed as stimulation of cAMP accumulation incubated for 20 mins. It is filed as functional, cell-based.

The record followed here is ChEMBL document CHEMBL4699602, “Stapled and Xenopus Glucagon-Like Peptide 1 (GLP-1)-Based Dual GLP-1/Gastrin Receptor Agonists with Improved Metabolic Benefits in Rodent Models of Obesity and Diabetes” (J Med Chem, 2020).

Where a SMILES comes first, the peptide text is derived from it. [ ]: non-standard residue; d: D form. ξ: configuration not given here. αMeH = C[C@](N)(Cc1c[nH]cn1)C(=O)O; Thr(3ξ) = CC(O)[C@H](N)C(=O)O; Aib = CC(C)(N)C(=O)O

As usually defined, the EC50 is the concentration giving half of the maximal effect.

T1 sequence (P43220 whole entry): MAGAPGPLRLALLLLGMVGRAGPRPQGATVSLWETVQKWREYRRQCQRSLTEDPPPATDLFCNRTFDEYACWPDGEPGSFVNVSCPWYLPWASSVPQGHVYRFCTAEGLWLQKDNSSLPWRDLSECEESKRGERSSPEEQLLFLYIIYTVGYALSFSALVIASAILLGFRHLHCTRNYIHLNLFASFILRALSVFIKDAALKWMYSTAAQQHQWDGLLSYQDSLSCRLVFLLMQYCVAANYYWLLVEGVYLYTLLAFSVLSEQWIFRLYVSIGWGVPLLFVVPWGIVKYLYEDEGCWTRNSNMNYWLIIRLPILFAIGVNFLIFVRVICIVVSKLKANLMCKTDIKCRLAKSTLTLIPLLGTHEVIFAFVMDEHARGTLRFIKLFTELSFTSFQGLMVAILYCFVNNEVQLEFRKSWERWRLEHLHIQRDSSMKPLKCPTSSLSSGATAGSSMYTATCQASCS

Regarding `CC[C@H](C)[C@H](NC(=O)[C@H](CC(C)C)NC(=O)[C@H](Cc1c[nH]c2ccccc12)NC(=O)[C@H](CCC(=O)O)NC(=O)[C@@H](NC(=O)[C@H](Cc1ccccc1)NC(=O)[C@@H]1CSC2CC(=O)N(CCC(=O)NC(C(=O)NCCCCCCNC(=O)COCCOCCNC(=O)CCC(NC(=O)CCCCCCCCCCCCCCCCC(=O)O)C(=O)O)CCCCNC(=O)CCN3C(=O)CC(SC[C@H](NC(=O)[C@H](Cc4ccc(O)cc4)NC(=O)[C@H](CCC(=O)O)NC(=O)[C@@H](NC(=O)[C@@H](NC(=O)[C@H](CC(=O)O)NC(=O)[C@H](CC(N)=O)NC(=O)[C@@H](NC(=O)[C@H](Cc4ccc(O)cc4)NC(=O)[C@@H](NC(=O)CNC(=O)[C@H](CCC(=O)O)NC(=O)C(C)(C)NC(=O)[C@@H](N)Cc4c[nH]cn4)[C@@H](C)O)[C@@H](C)O)C(C)C)[C@@H](C)O)C(=O)N[C@@H](CCC(=O)O)C(=O)N[C@@H](CCC(=O)O)C(=O)N[C@@H](CCC(=O)O)C(=O)N[C@@H](C)C(=O)N[C@@H](C)C(=O)N[C@@H](CCCCN)C(=O)N1)C3=O)C2=O)[C@@H](C)CC)C(=O)N[C@@H](CCCCN)C(=O)NCC(=O)N[C@@H](CCCCN)C(=O)N1CCC[C@H]1C(=O)N[C@@H](CO)C(=O)N[C@@H](CO)C(=O)NCC(=O)N[C@@H](C)C(=O)N1CCC[C@H]1C(=O)N1CCC[C@H]1C(=O)N1CCC[C@H]1C(=O)N[C@@H](CO)C(N)=O` (some centres not stated) (HELM PEPTIDE1{H.[Aib].E.G.T.Y.T.N.D.V.T.E.Y.C.E.E.E.A.A.K.C.F.I.E.W.L.I.K.G.K.P.S.S.G.A.P.P.P.S.[am]}|CHEM1{[O=C(O)CCCCCCCCCCCCCCCCC(=O)NC(CCC(=O)NCCOCCOCC(=O)NCCCCCCNC(=O)C(CCCCNC(=O)CCN1C(=O)CC([*:1])C1=O)NC(=O)CCN1C(=O)CC([*:2])C1=O)C(=O)O]}$PEPTIDE1,CHEM1,14:R3-1:R1|PEPTIDE1,CHEM1,21:R3-1:R2$$$V2.0), the figures for the EC50 in experiment [1] and in experiment [2] were 0.1 nM and 5.9 nM, respectively. Also, the Ratio EC50 in experiment [3] is 59.
The matching figures for `CC[C@H](C)[C@H](NC(=O)[C@H](CC(C)C)NC(=O)[C@H](Cc1c[nH]c2ccccc12)NC(=O)[C@H](CCC(=O)O)NC(=O)[C@@H](NC(=O)[C@H](Cc1ccccc1)NC(=O)[C@@H]1CSC2CC(=O)N(CCC(=O)NC(C(=O)NCCCCCCNC(=O)COCCOCCNC(=O)CCCCCCCCCCCCCCCCC(=O)O)CCCCNC(=O)CCN3C(=O)CC(SC[C@H](NC(=O)[C@H](Cc4ccc(O)cc4)NC(=O)[C@H](CCC(=O)O)NC(=O)[C@@H](NC(=O)[C@@H](NC(=O)[C@H](CC(=O)O)NC(=O)[C@H](CC(N)=O)NC(=O)[C@@H](NC(=O)[C@H](Cc4ccc(O)cc4)NC(=O)[C@@H](NC(=O)CNC(=O)[C@H](CCC(=O)O)NC(=O)C(C)(C)NC(=O)[C@@H](N)Cc4c[nH]cn4)[C@@H](C)O)[C@@H](C)O)C(C)C)[C@@H](C)O)C(=O)N[C@@H](CCC(=O)O)C(=O)N[C@@H](CCC(=O)O)C(=O)N[C@@H](CCC(=O)O)C(=O)N[C@@H](C)C(=O)N[C@@H](C)C(=O)N[C@@H](CCCCN)C(=O)N1)C3=O)C2=O)[C@@H](C)CC)C(=O)N[C@@H](CCCCN)C(=O)NCC(=O)N[C@@H](CCCCN)C(=O)N1CCC[C@H]1C(=O)N[C@@H](CO)C(=O)N[C@@H](CO)C(=O)NCC(=O)N[C@@H](C)C(=O)N1CCC[C@H]1C(=O)N1CCC[C@H]1C(=O)N1CCC[C@H]1C(=O)N[C@@H](CO)C(N)=O` (some centres not stated) (HELM PEPTIDE1{H.[Aib].E.G.T.Y.T.N.D.V.T.E.Y.C.E.E.E.A.A.K.C.F.I.E.W.L.I.K.G.K.P.S.S.G.A.P.P.P.S.[am]}|CHEM1{[O=C(O)CCCCCCCCCCCCCCCCC(=O)NCCOCCOCC(=O)NCCCCCCNC(=O)C(CCCCNC(=O)CCN1C(=O)CC([*:1])C1=O)NC(=O)CCN1C(=O)CC([*:2])C1=O]}$PEPTIDE1,CHEM1,14:R3-1:R1|PEPTIDE1,CHEM1,21:R3-1:R2$$$V2.0): 0.11 nM, 1.3 nM and 11.8.
With `CCCCCCCCCCCCCCCC(=O)NCCCCCCNC(=O)C1CCCCNC(=O)CCN2C(=O)CC(SC[C@H](NC(=O)[C@H](Cc3ccc(O)cc3)NC(=O)[C@H](CCC(=O)O)NC(=O)[C@@H](NC(=O)[C@@H](NC(=O)[C@H](CC(=O)O)NC(=O)[C@H](CC(N)=O)NC(=O)[C@@H](NC(=O)[C@H](Cc3ccc(O)cc3)NC(=O)[C@@H](NC(=O)CNC(=O)[C@H](CCC(=O)O)NC(=O)C(C)(C)NC(=O)[C@@H](N)Cc3c[nH]cn3)[C@@H](C)O)[C@@H](C)O)C(C)C)[C@@H](C)O)C(=O)N[C@@H](CCC(=O)O)C(=O)N[C@@H](CCC(=O)O)C(=O)N[C@@H](CCC(=O)O)C(=O)N[C@@H](C)C(=O)N[C@@H](C)C(=O)N[C@@H](CCCCN)C(=O)N[C@H](C(=O)N[C@@H](Cc3ccccc3)C(=O)N[C@H](C(=O)N[C@@H](CCC(=O)O)C(=O)N[C@@H](Cc3c[nH]c4ccccc34)C(=O)N[C@@H](CC(C)C)C(=O)N[C@H](C(=O)N[C@@H](CCCCN)C(=O)NCC(=O)N[C@@H](CCCCN)C(N)=O)[C@@H](C)CC)[C@@H](C)CC)CSC3CC(=O)N(CCC(=O)N1)C3=O)C2=O` (some centres not stated) (HELM PEPTIDE1{H.[Aib].E.G.T.Y.T.N.D.V.T.E.Y.C.E.E.E.A.A.K.C.F.I.E.W.L.I.K.G.K.[am]}|CHEM1{[CCCCCCCCCCCCCCCC(=O)NCCCCCCNC(=O)C(CCCCNC(=O)CCN1C(=O)CC([*:1])C1=O)NC(=O)CCN1C(=O)CC([*:2])C1=O]}$PEPTIDE1,CHEM1,14:R3-1:R1|PEPTIDE1,CHEM1,21:R3-1:R2$$$V2.0), the concentration giving a half-maximal response (EC50) stood at 0.098 nM in experiment [1] and 1.8 nM in experiment [2]. Also, the Ratio EC50 in experiment [3] worked out at 18.4.
As for `CC[C@H](C)[C@H](NC(=O)[C@H](CC(C)C)NC(=O)[C@H](Cc1c[nH]c2ccccc12)NC(=O)[C@H](CCC(=O)O)NC(=O)[C@@H](NC(=O)[C@H](Cc1ccccc1)NC(=O)[C@@H]1CSC2CC(=O)N(CCC(=O)NC(C(=O)NCCCCCCNC(=O)COCCOCCNC(=O)COCCOCCNC(=O)CCC(NC(=O)CCCCCCCCCCCCCCCCC(=O)O)C(=O)O)CCCCNC(=O)CCN3C(=O)CC(SC[C@H](NC(=O)[C@H](Cc4ccc(O)cc4)NC(=O)[C@H](CCC(=O)O)NC(=O)[C@@H](NC(=O)[C@@H](NC(=O)[C@H](CC(=O)O)NC(=O)[C@H](CC(N)=O)NC(=O)[C@@H](NC(=O)[C@H](Cc4ccc(O)cc4)NC(=O)[C@@H](NC(=O)CNC(=O)[C@H](CCC(=O)O)NC(=O)C(C)(C)NC(=O)[C@@H](N)Cc4c[nH]cn4)[C@@H](C)O)[C@@H](C)O)C(C)C)[C@@H](C)O)C(=O)N[C@@H](CCC(=O)O)C(=O)N[C@@H](CCC(=O)O)C(=O)N[C@@H](CCC(=O)O)C(=O)N[C@@H](C)C(=O)N[C@@H](C)C(=O)N[C@@H](CCCCN)C(=O)N1)C3=O)C2=O)[C@@H](C)CC)C(=O)N[C@@H](CCCCN)C(=O)NCC(=O)N[C@@H](CCCCN)C(N)=O` (some centres not stated) (HELM PEPTIDE1{H.[Aib].E.G.T.Y.T.N.D.V.T.E.Y.C.E.E.E.A.A.K.C.F.I.E.W.L.I.K.G.K.[am]}|CHEM1{[O=C(O)CCCCCCCCCCCCCCCCC(=O)NC(CCC(=O)NCCOCCOCC(=O)NCCOCCOCC(=O)NCCCCCCNC(=O)C(CCCCNC(=O)CCN1C(=O)CC([*:1])C1=O)NC(=O)CCN1C(=O)CC([*:2])C1=O)C(=O)O]}$PEPTIDE1,CHEM1,14:R3-1:R1|PEPTIDE1,CHEM1,21:R3-1:R2$$$V2.0), the EC50 came to 0.16 nM in experiment [1] and 14.5 nM in experiment [2]. In addition, in experiment [3], the Ratio EC50 worked out at 90.6.
For `CC[C@H](C)[C@H](NC(=O)[C@H](CC(C)C)NC(=O)[C@H](Cc1c[nH]c2ccccc12)NC(=O)[C@H](CCC(=O)O)NC(=O)[C@@H](NC(=O)[C@H](Cc1ccccc1)NC(=O)[C@@H]1CSC2CC(=O)N(CCC(=O)NC(C(=O)NCCCCCCNC(=O)COCCOCCNC(=O)CCCCCCCCCCCCCCCCC(=O)O)CCCCNC(=O)CCN3C(=O)CC(SC[C@H](NC(=O)[C@H](Cc4ccc(O)cc4)NC(=O)[C@H](CCC(=O)O)NC(=O)[C@@H](NC(=O)[C@@H](NC(=O)[C@H](CC(=O)O)NC(=O)[C@H](CC(N)=O)NC(=O)[C@@H](NC(=O)[C@H](Cc4ccc(O)cc4)NC(=O)[C@@H](NC(=O)CNC(=O)[C@H](CCC(=O)O)NC(=O)C(C)(C)NC(=O)[C@@H](N)Cc4c[nH]cn4)[C@@H](C)O)[C@@H](C)O)C(C)C)[C@@H](C)O)C(=O)N[C@@H](CCC(=O)O)C(=O)N[C@@H](CCC(=O)O)C(=O)N[C@@H](CCC(=O)O)C(=O)N[C@@H](C)C(=O)N[C@@H](C)C(=O)N[C@@H](CCCCN)C(=O)N1)C3=O)C2=O)[C@@H](C)CC)C(=O)N[C@@H](CCCCN)C(=O)NCC(=O)N[C@@H](CCCCN)C(N)=O` (some centres not stated) (HELM PEPTIDE1{H.[Aib].E.G.T.Y.T.N.D.V.T.E.Y.C.E.E.E.A.A.K.C.F.I.E.W.L.I.K.G.K.[am]}|CHEM1{[O=C(O)CCCCCCCCCCCCCCCCC(=O)NCCOCCOCC(=O)NCCCCCCNC(=O)C(CCCCNC(=O)CCN1C(=O)CC([*:1])C1=O)NC(=O)CCN1C(=O)CC([*:2])C1=O]}$PEPTIDE1,CHEM1,14:R3-1:R1|PEPTIDE1,CHEM1,21:R3-1:R2$$$V2.0) the same measures were 0.13 nM, 1.4 nM and 10.8.
With “H-H[Aib]EGTYTNDVTEYLEEEAACEFIEWLCKGKPSSGAPPSKKKKKK-NH2 (cysteines drawn unpaired)”, the EC50 in experiment [4] worked out at 0.23 nM.
On the same count and under the same terms, with “H-H[Aib]EGTYTNDVTEYLEEEAAKECIEWLIKCKPSSGAPPSKKKKKK-NH2 (cysteines drawn unpaired)” the figure was 0.13 nM.
Still for that read-out and setting: for “H-H[Aib]EGTYTNDVTEYLEEEACKEFIEWCIKGKPSSGAPPSKKKKKK-NH2 (cysteines drawn unpaired)” the value was 0.15 nM.
Still for that read-out and setting: for “H-H[Aib]EGTYTNDVTEYLEEECAKEFIECLIKGKPSSGAPPSKKKKKK-NH2 (cysteines drawn unpaired)” the value was 0.1 nM; for “H-H[Aib]EGTY[Thr(3ξ)]NDV[Thr(3ξ)]EYLEECAAKEFICWLIKGKPSSGAPPSKKKKKK-NH2 (cysteines drawn unpaired)”, 0.073 nM.
On to “H-H[Aib]EG[Thr(3ξ)]YTNDVTEYLEEEAAKEFCEWLIKGCPSSGAPPSKKKKKK-NH2 (cysteines drawn unpaired)”, for which the EC50 in experiment [4] turned out to be 0.23 nM.
Turning to “H-[αMeH]AEGTYTNDVTCYLEEEACKEFIEWLIKGKPSSGAPPSKKKKKK-NH2 (cysteines drawn unpaired)”, the EC50 in experiment [4] was 0.11 nM.
